The text below walks through data of patent US11213031B2, “Tetrazolylpropyl derivatives and their use as fungicides” (BAYER AKTIENGESELLSCHAFT, priority 2017, dated 2022).

Broadly, the chromatographic logP is lipophilicity estimated from chromatographic retention. A lower chromatographic logP goes with lower lipophilicity.

Data set [1] is described as follows: Log P by HPLC on reversed phase columns (EEC directive 79/831 Annex V.A8). In kind it is physicochemical. The method, then:
Measurement of Log P values was performed according to EEC directive 79/831 Annex V.A8 by HPLC (High Performance Liquid Chromatography) on reversed phase columns with the following methods: • ^[a]Log P value is determined by measurement of LC-UV, in an acidic range, with 0.1% formic acid in water and acetonitrile as eluent (linear gradient from 10% acetonitrile to 95% acetonitrile). • ^[b]Log P value is determined by measurement of LC-UV, in a neutral range, with 0.001 molar ammonium acetate solution in water and acetonitrile as eluent (linear gradient from 10% acetonitrile to 95% acetonitrile). • ^[c]Log P value is determined by measurement of LC-UV, in an acidic range, with 0.1% phosphoric acid and acetonitrile as eluent (linear gradient from 10% acetonitrile to 95% acetonitrile).
If more than one Log P value is available within the same method, all the values are given and separated by “+”.
Calibration was done with straight-chain alkan2-ones (with 3 to 16 carbon atoms) with known Log P values (measurement of Log P values using retention times with linear interpolation between successive alkanones). Lambda-max-values were determined using UV-spectra from 200 nm to 400 nm and the peak values of the chromatographic signals.

Data set [2] concerns Sphaerotheca fuliginea. Kind of data set: In vivo preventive test on Sphaerotheca fuliginea (powdery mildew on cucurbits). The settings on record: Podosphaera fuliginea, 192 h; 500 ppm of active ingredient; gherkin plants sprayed 24 hours before inoculation; evaluated 8 days after inoculation; read-out: efficacy. The protocol: (§1) Solvent: 5% by volume of Dimethyl sulfoxide • 10% by volume of Acetone
(§2) Emulsifier: 1 μl of Tween® 80 per mg of active ingredient
(§3) The active ingredients were made soluble and homogenized in a mixture of Dimethyl sulfoxide/Acetone/Tween® 80 and then diluted in water to the desired concentration.
The young plants of gherkin were treated by spraying the active ingredient prepared as described above. Control plants were treated only with an aqueous solution of Acetone/Dimethyl sulfoxide/Tween® 80.
After 24 hours, the plants were contaminated by spraying the leaves with an aqueous suspension of Sphaerotheca fuliginea spores. The contaminated gherkin plants were incubated for 8 days at 20° C. and at 70-80% relative humidity.
The test was evaluated 8 days after the inoculation. 0% means an efficacy which corresponds to that of the control plants while an efficacy of 100% means that no disease was observed.

Data set [3] concerns Septoria tritici. Kind of data set: In vivo preventive test on Septoria tritici (leaf spot on wheat). Particulars: Zymoseptoria tritici, 456 h; 500 ppm of active ingredient; wheat plants sprayed 24 hours before inoculation; evaluated 19 days after inoculation; read-out: efficacy. The method, then:
as §1, §2, §3
The young plants of wheat were treated by spraying the active ingredient prepared as described above. Control plants were treated only with an aqueous solution of Acetone/Dimethyl sulfoxide/Tween® 80.
After 24 hours, the plants were contaminated by spraying the leaves with an aqueous suspension of Septoria tritici spores. The contaminated wheat plants were incubated for 72 hours at 17° C. and at 100% relative humidity and then for 15 days at 20° C. and at 90% relative humidity.
The test was evaluated 19 days after the inoculation. 0% means an efficacy which corresponds to that of the control plants while an efficacy of 100% means that no disease was observed.

Data set [4] deals with Uromyces appendiculatus. Nature of the data set: In vivo preventive test on Uromyces appendiculatus (bean rust). The settings on record: 264 h, 500 ppm of active ingredient, bean plants sprayed 24 hours before inoculation, evaluated 11 days after inoculation, read-out: efficacy. The protocol: as §1, §2, §3
The young plants of bean were treated by spraying the active ingredient prepared as described above. Control plants were treated only with an aqueous solution of Acetone/Dimethyl sulfoxide/Tween® 80.
After 24 hours, the plants were contaminated by spraying the leaves with an aqueous suspension of Uromyces appendiculatus spores. The contaminated bean plants were incubated for 24 hours at 20° C. and at 100% relative humidity and then for 10 days at 20° C. and at 70-80% relative humidity.
The test was evaluated 11 days after the inoculation. 0% means an efficacy which corresponds to that of the control plants while an efficacy of 100% means that no disease was observed.

The mark [5] stands for this setting: method [a]: LC-UV, acidic range, 0.1% formic acid in water and acetonitrile as eluent.

Where two headings read alike, the source gives them in different places.

Turning to `OC(Cc1ccccc1)(Cn1cnnn1)C1(Cl)CC1` (stereo not drawn) [Ia-01, 2-(1-chlorocyclopropyl)-1-phenyl-3-(tetrazol-1-yl)propan-2-ol], the chromatographic logP in data set [1] (setting [5]) worked out at 2.41. In addition, the pest or weed control at 500 ppm in data set [2] lay in the range of 90 to 100%; in data set [3], 70 to 79%; in data set [4], 90 to 100%. For the compound `C=C(c1ccccc1F)C(O)(Cn1cnnn1)C1(Cl)CC1` (stereo not drawn) [Ia-en-02, 2-(1-chlorocyclopropyl)-3-(2-fluorophenyl)-1-(tetrazol-1-yl)but-3-en-2-ol], the chromatographic logP in data set [1] (setting [5]) came out at 2.46. For the same compound, the pest or weed control at 500 ppm in data set [2], in data set [3] and in data set [4] was 90 to 100% throughout. In data set [1] (setting [5]), `OC(Cc1ccccc1Cl)(Cn1cnnn1)C1(Cl)CC1` (stereo not drawn) [Ia-05, 2-(1-chlorocyclopropyl)-1-(2-chlorophenyl)-3-(tetrazol-1-yl)propan-2-ol] came in with a chromatographic logP of 2.65. For the same compound, the pest or weed control at 500 ppm in data set [2], in data set [3] and in data set [4] was 90 to 100% in each case. `OC(Cc1ccccc1F)(Cn1cnnn1)C1(Cl)CC1` (stereo not drawn) [Ia-04, 2-(1-chlorocyclopropyl)-1-(2-fluorophenyl)-3-(tetrazol-1-yl)propan-2-ol] came in with a chromatographic logP in data set [1] (setting [5]) of 2.46. For the same compound, the pest or weed control at 500 ppm in data set [2], in data set [3] and in data set [4] was 90 to 100% in each case. Regarding `CC(c1ccccc1F)C(O)(Cn1cnnn1)C1(Cl)CC1` (single isomer, unassigned) [Ia-22, 2-(1-chlorocyclopropyl)-3-(2-fluorophenyl)-1-(tetrazol-1-yl)butan-2-ol], in data set [1] (setting [5]), the LogP is 2.80^[a]. The pest or weed control at 500 ppm in data set [3] lay within 90 to 100%. The compound `CC(c1ccccc1F)C(O)(Cn1cnnn1)C1(Cl)CC1` (single isomer, unassigned) [Ia-20, 2-(1-chlorocyclopropyl)-3-(2-fluorophenyl)-1-(tetrazol-1-yl)butan-2-ol] gave a chromatographic logP in data set [1] (setting [5]) of 2.61. Besides, the pest or weed control at 500 ppm in data set [2] and in data set [4] was 90 to 100% throughout. On to `OC(Cc1cccc(F)c1F)(Cn1ncnn1)C1(Cl)CC1` (stereo not drawn) [Ib-03], for which, in data set [1], the LogP was 2.82^[a]. Consider `OC(Cc1ccc(F)c(F)c1)(Cn1cnnn1)C1(Cl)CC1` (stereo not drawn) [Ia-56], for which the LogP in data set [1] is 2.64^[a]. On the same count and under the same terms, the value for `OC(Cc1cc(F)c(F)cc1F)(Cn1ncnn1)C1(Cl)CC1` (stereo not drawn) [Ib-16] was 3.09^[a]; that for `CC1(C(O)(Cc2ccccc2Cl)Cn2cnnn2)CC1` (stereo not drawn) [Ia-08] was 2.80^[a]. As for `OC(Cc1ccc(Cl)cc1F)(Cn1ncnn1)C1(Cl)CC1` (stereo not drawn) [Ib-08], the LogP in data set [1] is 3.37^[a]. Turning to `OC(Cc1ccncc1Cl)(Cn1cnnn1)C1(Cl)CC1` (stereo not drawn) [Ia-73], the LogP in data set [1] is 1.65^[a]. `OC(Cc1ccc(F)cc1F)(Cn1cnnn1)C1(Cl)CC1` (stereo not drawn) [Ia-53]: the LogP in data set [1] is 2.57^[a].

As for `CC1(C(O)(Cc2ccccc2)Cn2cnnn2)CC1` (stereo not drawn) [Ia-10], the LogP in data set [1] was 2.35^[a].

Consider `C=C(c1ccccc1Cl)C(O)(Cn1cnnn1)C1(Cl)CC1` (stereo not drawn) [Ia-en-09], for which the LogP in data set [1] is 2.71^[a].

Compound `O=C(Cn1ncnn1)C1(Cl)CC1` [XVIb-01, 1-(1-chlorocyclopropyl)-2-(tetrazol-2-yl)ethanone] displayed a chromatographic logP in data set [1] (setting [5]) of 1.3.

Regarding `COc1cc(F)c(CC(O)(Cn2cnnn2)C2(Cl)CC2)c(F)c1` (stereo not drawn) [Ia-49], the LogP in data set [1] is 2.69^[a]. On the same count and under the same terms, the value for `COc1cc(F)c(CC(O)(Cn2ncnn2)C2(Cl)CC2)c(F)c1` (stereo not drawn) [Ib-15] was 3.11^[a]; that for `Cc1cccc(CC(O)(Cn2cnnn2)C2(F)CC2)c1` (stereo not drawn) [Ia-28] was 2.42^[a]; that for `OC(Cc1ccc(F)c(F)c1F)(Cn1cnnn1)C1(Cl)CC1` (stereo not drawn) [Ia-44] was 2.71^[a]. Turning to `OC(Cc1cc(F)cc(F)c1F)(Cn1ncnn1)C1(Cl)CC1` (stereo not drawn) [Ib-11], in data set [1], the LogP was 3.06^[a].

For the compound `OC(Cc1cccc(C(F)(F)F)c1F)(Cn1cnnn1)C1(Cl)CC1` (stereo not drawn) [Ia-71], in data set [1], the LogP is 3.04^[a]. On to `CC=C(c1cccc(F)c1F)C(O)(Cn1cnnn1)C1(Cl)CC1` (racemic) [Ia-en-06], for which the LogP in data set [1] was 2.82^[a].

With `COc1c(F)ccc(CC(O)(Cn2cnnn2)C2(Cl)CC2)c1F` (stereo not drawn) [Ia-50], the LogP in data set [1] was 2.62^[a]. As to `Cc1ccc(CC(O)(Cn2cnnn2)C2(Cl)CC2)c(F)c1F` (stereo not drawn) [Ia-55], the LogP in data set [1] is 2.92^[a]. With `OC(Cc1ccccc1)(Cn1cnnn1)C1(F)CC1` (stereo not drawn) [Ia-17], in data set [1], the LogP is 2.08^[a]. Consider `COc1ccc(CC(O)(Cn2cnnn2)C2(F)CC2)cc1` (stereo not drawn) [Ia-27], for which, in data set [1], the LogP is 2.08^[a]. `O=C(Cn1cnnn1)C1(Cl)CC1` [XVIa-01, 1-(1-chlorocyclopropyl)-2-(tetrazol-1-yl)ethanone] came in with a chromatographic logP in data set [1] (setting [5]) of 0.99. In the case of `OC(Cc1cccc(Cl)c1F)(Cn1cnnn1)C1(Cl)CC1` (stereo not drawn) [Ia-02], the LogP in data set [1] was 2.72^[a].

`COc1c(F)ccc(CC(O)(Cn2ncnn2)C2(Cl)CC2)c1F` (stereo not drawn) [Ib-14]: the LogP in data set [1] is 3.00^[a]. In the case of `OC(Cc1cc(F)cc(F)c1)(Cn1cnnn1)C1(Cl)CC1` (stereo not drawn) [Ia-31], in data set [1], the LogP is 2.63^[a]. Still for that read-out and setting: the value for `O=C(Cn1ncnn1)C1(F)CC1` [XVIb-03] was 0.86^[a].

With `CC1(C(=O)Cn2ncnn2)CC1` [XVIb-02], the LogP in data set [1] is 1.05^[a]. In the case of `OC(Cc1ccc(F)c(Cl)c1)(Cn1cnnn1)C1(Cl)CC1` (stereo not drawn) [Ia-52], in data set [1], the LogP was 2.90^[a].

With `OC(Cc1ccccc1OC(F)(F)F)(Cn1cnnn1)C1(Cl)CC1` (stereo not drawn) [Ia-32], the LogP in data set [1] was 3.06^[a].

With `Cc1ccccc1CC(O)(Cn1cnnn1)C1(Cl)CC1` (stereo not drawn) [Ia-66], the LogP in data set [1] was 2.77^[a]. For the compound `Cc1ccccc1CC(O)(Cn1cnnn1)C1(C)CC1` (stereo not drawn) [Ia-12], the LogP in data set [1] was 2.75^[a]. For the compound `OC(Cc1cccc(Cl)c1Cl)(Cn1cnnn1)C1(Cl)CC1` (stereo not drawn) [Ia-15], in data set [1], the LogP is 3.19^[a]. Take `OC(Cc1cccc(Br)c1)(Cn1cnnn1)C1(Cl)CC1` (stereo not drawn) [Ia-62]: in data set [1], the LogP was 2.92^[a].

Consider `COC(Cc1ccccc1Br)(Cn1cnnn1)C1(Cl)CC1` (stereo not drawn) [Ia-70], for which the LogP in data set [1] was 3.23^[a]. For the compound `OC(Cc1ccccc1Br)(Cn1cnnn1)C1(Cl)CC1` (stereo not drawn) [Ia-24], the LogP in data set [1] was 2.88^[a].

Take `OC(Cc1ccc(F)c(Cl)c1F)(Cn1cnnn1)C1(Cl)CC1` (stereo not drawn) [Ia-38]: the LogP in data set [1] is 2.94^[a].

For `OC(Cc1ccccc1Cl)(Cn1cnnn1)C1(F)CC1` (stereo not drawn) [Ia-19], the LogP in data set [1] was 2.40^[a]. Same read-out and setting: the value for `Cc1ccc(CC(O)(Cn2cnnn2)C2(Cl)CC2)cc1` (stereo not drawn) [Ia-57] was 2.78^[a]; that for `C=C(c1cc(F)ccc1F)C(O)(Cn1cnnn1)C1(Cl)CC1` (stereo not drawn) [Ia-en-01] was 2.54^[a].

As for `OC(Cc1ccc(F)cc1F)(Cn1ncnn1)C1(Cl)CC1` (stereo not drawn) [Ib-17], the LogP in data set [1] is 2.96^[a].

Consider `COc1cccc(CC(O)(Cn2cnnn2)C2(C)CC2)c1` (stereo not drawn) [Ia-61], for which the LogP in data set [1] is 2.37^[a]. Take `CC(c1cc(F)ccc1F)C(O)(Cn1cnnn1)C1(Cl)CC1` (single isomer, unassigned) [Ia-18]: the LogP in data set [1] is 2.92^[a]. As to `OC(Cc1c(F)ccc(F)c1F)(Cn1ncnn1)C1(Cl)CC1` (stereo not drawn) [Ib-19], the LogP in data set [1] is 3.02^[a].

Consider `OC(Cc1ccccc1C(F)(F)F)(Cn1cnnn1)C1(Cl)CC1` (stereo not drawn) [Ia-07], for which the LogP in data set [1] is 3.02^[a]. Regarding `OC(Cc1ccncc1Cl)(Cn1ncnn1)C1(Cl)CC1` (stereo not drawn) [Ib-22], in data set [1], the LogP is 1.96^[b].
